Assay results published in publication PMC8470881, “Membrane Interactions of Latarcins: Antimicrobial Peptides from Spider Venom” (International Journal of Molecular Sciences, 2021).
No end group written: not given here.

Columns and labels:
[1] = tested on: Bacillus subtilis subsp. spizizenii (DSM 347), Staphylococcus xylosus (DSM 20267), Escherichia coli (DSM 1116), Acinetobacter sp. (DSM 586); conditions: for MIC: irrespective of the bacterial strain (all four strains), Müller-Hinton medium, 20 h at 37 °C, maximum tested 256 µg/mL
Protocol: The effect of latarcins against four types of bacteria was determined using a minimum inhibitory concentration (MIC) assay on two Gram-positive strains (Bacillus subtilis subsp. spizizenii and Staphylococcus xylosus) and two Gram-negative strains (Escherichia coli and Acinetobacter sp.). Although the antimicrobial activity of latarcins is well documented, these experiments served to ensure that all studies were performed on molecules that show the expected antimicrobial activity.
The minimum inhibitory concentration (MIC) was determined as previously reported. For each latarcin, MIC was determined against two Gram-positive strains, namely Bacillus subtilis subsp. spizizenii (DSM 347) and Staphylococcus xylosus (DSM 20267), and two Gram-negative strains: Escherichia coli (DSM 1116) and Acinetobacter sp. (DSM 586). Bacterial cultures were grown in Müller-Hinton medium (MHM) as described previously, and peptides were dissolved in sterile water containing 10% DMSO. The stock solution of peptides with 1024 µg/mL was prepared such that serial dilutions of peptides (from 256 µg/mL to 2 µg/mL) in MHM were prepared in 96-well plates with the penultimate column without peptide to act as positive control (no peptide) and the final column as negative control (no bacteria). Bacterial stock suspension was made with an OD of 0.2 units at 550 nm. This stock solution was further diluted (1:1000 for Gram-negative bacteria and 1:100 for Gram-positive bacteria), and subsequently, 50 µL of the resulting bacterial suspension was added to the wells except the final well to give a final concentration of 10^6 colony-forming units per mL. Afterwards, the 96-well plates were incubated at 37 °C for 20 h, and cellular respiration was detected by adding 20 µL of resazurin solution (200 µg/mL) for an additional 2 h at the same temperature.

human red blood cells = test: Hemolysis assay; conditions: peptide concentration 128 µg/mL, 30 min, 37 °C
Protocol: A hemolysis assay was performed to determine the activity of latarcins against human red blood cells, allowing us to compare the results to those of previous experiments in which rabbit erythrocytes were used. The activity was determined for each latarcin as a function of increasing concentration, up to a maximum of 256 µg of peptides per mL. […] The percentage hemolysis of the other peptides was determined at the highest tested concentration of 256 µg/mL.
The influence of latarcins on human erythrocytes was determined by using a hemolysis assay modified from previously published methods. Blood was obtained from the blood bank of the local hospital in Karlsruhe and stabilized with citrate phosphate dextrose buffer. Erythrocyte suspension (5 mL) was taken up in Tris buffer (45 mL, 172 mM, pH 7.6) at room temperature, gently mixed, and centrifuged (1500 rpm, 10 min). The supernatant solution was removed, and Tris wash was repeated twice with 45 mL as above. The washed erythrocytes (1 mL) were suspended in 9 mL Tris buffer to make the stock cell suspension, which was then further diluted to 0.25% (v/v) at 37 °C before use. Peptide stock solutions were prepared with 1024 µg/mL in Tris buffer containing 10% DMSO, and serial dilutions were prepared in the range of 512 µg/mL to 2 µg/mL as described previously. For the positive control, Triton X-100 (200 µL of 0.2% v/v) was used, and as the negative control, Tris buffer (200 µL, 172 mM) was used. Erythrocyte stock cell suspension (200 µL) was added to each of the samples and incubated for 30 min at 37 °C with gentle shaking before determining the percentage of hemolysis as described previously.

[2] = Circular dichroism spectroscopy (secondary structure); format: physicochemical; conditions: CD in DMPC/DMPG (7/3) SUVs, P/L = 1:50, 10 mM phosphate buffer pH 7.0, 30 °C, peptide 29.3 μM; deconvolution with CDSSTR, CONTIN-LL, SELCON-3
Source text: Next, we compared the secondary structure of the full set of latarcins in the presence of lipid membranes, for which there are no complete data available yet.
The CD line shapes (Figure 2) were deconvoluted to estimate the secondary structure contributions (Supplementary Table S1) using the CDSSTR, CONTIN-LL, and SELCON-3 algorithms provided on the DICHROWEB online server as described previously. […] In peptides containing a high proportion of aromatic residues, such shifts of the long-wavelength band are well documented.
Small unilamellar vesicles (SUVs) for the CD measurements were prepared as follows. Weighed amounts of the lipid powders (DMPC, DMPG) were dissolved in chloroform/methanol 1/1 (v/v) to obtain 5 mg/mL stock solutions. For obtaining mixed DMPC/DMPG liposomes (7/3 molar ratio), the appropriate aliquots of these stock solutions were pipetted in a glass vial and thoroughly vortexed. The organic solvents were removed under a gentle stream of nitrogen gas, followed by 3 h of vacuum pumping in an exsiccator at a reduced pressure of 3-4 mbars to remove solvent residuals from the lipid film that had formed in the vial. The lipid film was dispersed by the addition of 10 mM phosphate buffer (PB) pH 7.0 and homogenized by vigorously vortexing for 10 × 1 min and 10 freeze–thaw cycles. SUVs were formed by sonication of the obtained multilamellar vesicles for 16 min in a strong ultrasonic bath (UTR 200, Hielscher, Germany). The temperature of the water in the ultrasonic bath was adjusted to 35 °C by circulating it through a thermostat to avoid overheating the samples. A weighed amount of the corresponding peptide was dissolved in water resulting in stock solutions with a peptide concentration of 0.5 mg/mL. For the final CD samples, each peptide stock solution was diluted to 29.3 μM and the corresponding lipid dispersion to 1.47 mM in 10 mM PB, resulting in a peptide-to-lipid (P/L) ratio of 1/50.
[…] The samples were measured in a 1-millimeter path length quartz glass cell (Suprasil, Hellma Müllheim, Germany) between 260 and 185 nm at 0.5 nm intervals. Spectra of the liposome samples were recorded at 30 °C, i.e., well above the phase transition temperature of the lipids, using a water-thermostated rectangular cell holder. Three repeat scans at a scan rate of 10 nm min^−1, 8 s response time, and 1 nm bandwidth were averaged for each sample, and the baseline spectrum of the respective peptide-free sample was subtracted from the sample spectrum. CD spectra were smoothened by a Savitzky-Golay filter (convolution width of 15 data points), which is implemented in the Jasco Spectra Analysis software.

[3] = Oriented circular dichroism (helix alignment in membrane); format: physicochemical; conditions: DMPC/DMPG (7/3), P/L = 1:100, oriented hydrated bilayers, 30 °C
Source text: This is the same lipid composition and peptide-to-lipid ratio as was used in conventional CD above (see Figure 2), but in contrast to the vesicular samples containing excess water, the oriented membranes for OCD are just about saturated with water.
The sign and intensity of the 208 nm band provide a characteristic signature of the helix tilt angle in the membrane [19]. For a helical peptide that lies flat on the bilayer surface, this band is the most intense.
To prepare oriented CD (OCD) samples, latarcins depending on their solubility were dissolved either in pure MeOH or CHCl3/MeOH 1/1 (v/v) and thoroughly mixed with appropriate aliquots of DMPC/DMPG solutions (7/3 molar ratio) in the same solvent. Each co-dissolved mixture with a peptide-to-lipid molar ratio of 1/100 was deposited on a quartz glass plate using a gas-tight syringe. To achieve a spot size of 12.5 mm on the 20 mm diameter plates (Suprasil QS, Hellma Optik GmbH, Jena, Germany), a volume of ~55–60 µL was used. The organic solvents were evaporated in a gentle stream of air until the sample appeared dry. The amounts of deposited lipid and peptide on the plate were always 0.29 μmole and 2.9 nmole, respectively. The peptide-lipid-film was further dried under reduced pressure for at least 3 h. Afterwards, each plate with the dried sample was fixed and sealed by a polymer O-ring in a cylindrical sample holder. The plate with the sample and a second window plate without the sample formed a compartment for controlled hydration. The holder was assembled in a custom-built hydration cell. In the inner compartment of the sample holder, the peptide-lipid film was hydrated for about 15 h at 30 °C and 97% relative humidity via the gas phase by a saturated K2SO4 solution contained in an adjacent cavity of the hydration cell. During hydration, the lipids spontaneously align as lipid bilayers that are macroscopically oriented perpendicular to the glass surface. For the measurement, the holder was transferred to an OCD sample cell that had been developed and built in-house [20]. It is computer-controlled and can be integrated into a Jasco spectropolarimeter as an accessory. The optical path runs along the cylindrical axis of the cell, i.e., normal to the quartz glass plate surface carrying the oriented lipid film. To reduce possible spectral artifacts caused by linear dichroism (LD) or linear birefringence (LB) due to imperfections in the sample, strain in the quartz glass or imperfect alignment of the windows, the OCD spectra were recorded in steps of 45° by rotation of the cell around the beam axis [19, 20]. At each angle, two scans were recorded from 260–185 nm as an average, using a scan rate of 20 nm min^−1, 4 s response time, and 1 nm bandwidth.

[4] = Solid-state 15N-NMR (helix alignment in membrane); format: physicochemical; conditions: DMPC/DMPG (7/3), P/L = 1:100, oriented samples, solid-state 15N-NMR, 308 K
Protocol: While OCD provides a rough picture of the peptide alignment, the helix tilt angle can be measured rather precisely by solid-state NMR using the same type of oriented membrane sample. […] If the peptides are not helical, then the orientation cannot be determined from these ^15N-NMR spectra (which is why CD/OCD need to be performed first), but other information may be available. Oriented NMR samples were prepared at a P/L of 1/100 in DMPC/DMPG (7/3), as for CD/OCD. The ^15N-NMR spectra of all latarcins are summarized in Figure 7, along with the corresponding ^31P-NMR spectra of the phospholipid component. […] This conclusion is supported by the vesicle leakage data above.
Ltc2a, with a chemical shift of 131 ppm, on the other hand, is distinctly tilted in the membrane, as was also observed in the OCD experiments. […] Ltc3a, with a chemical shift of 93 ppm, is tilted only slightly by 10–20°. […] Given that OCD had shown distinct signs of aggregation into β-sheets, we can conclude that Ltc6a binds to the membrane and perturbs the lipid bilayer, but it is not possible to determine the molecular alignment of Ltc6a when it has most likely formed aggregates.
Macroscopically oriented NMR samples were prepared by co-dissolving appropriate amounts of peptides and lipids (in 300 μL methanol, 100 μL CHCl3, and 10–20 μL Milli-Q water) and spreading them onto 23 thin glass plates of dimensions 9 mm × 7.5 mm × 0.08 mm (Marienfeld Laboratory Glassware, Lauda-Königshofen, Germany). The peptide-to-lipid ratio (P/L) is given in mol/mol. The plates were dried in air for 1 h, followed by drying under vacuum overnight. The plates were stacked and placed into a hydration chamber with 96% relative humidity at 48 °C for 18–24 h before wrapping the stack in parafilm and plastic foil for the NMR measurements. All solid-state NMR measurements were carried out on a Bruker Avance 500 MHz spectrometer (Bruker Biospin, Karlsruhe, Germany) at 308 K, as previously reported. The oriented membrane samples were placed in the flat-coil probe such that the lipid bilayer normal was aligned parallel to the magnetic field. ^31P-NMR was used to check the quality of the lipid orientation in the samples, using a Hahn echo sequence with phase cycling. The 90° pulse length was 3.9 µs, the echo time was 30 µs, and 17 kHz ^1H SPINAL64 decoupling was used. ^1H-^15N cross-polarization experiments using a CP-MOIST pulse sequence were performed using a double-tuned probe with a low-E flat-coil resonator (3 mm × 9 mm cross-section), employing a ^1H and ^15N radiofrequency field strength of 65 kHz during the cross-polarization and 25 kHz ^1H SPINAL16 [41] decoupling during acquisition. A mixing time of 500 μs was used, and 10,000 to 30,000 scans were accumulated. The acquisition time was 10 ms, and the recycle time was 3 s. The ^15N chemical shift was referenced using the ^1H-NMR signal of water in the sample.

GLFGKLIKKFGRKAISYAVKKARGKH [Ltc2a]
MIC [1]: below 4 µg/mL | % Hemolysis (human red blood cells): 100%

H-SMWSGMWRRKLKKLRNALKKKLKGE-OH [Ltc1]
MIC [1]: below 4 µg/mL | MIC (relative antimicrobial activity) ([1]; relative activity over two Gram-positive and two Gram-negative strains): +++ | % Helix (CD) [2]: 66% | OCD: orientational state of the helix [3]: Surface | NMR: orientational state of the helix [4]: Surface
